Source: patent publication US20080146662A1, “Methods and compositions for treatment of cancer pain” (priority 2002, published 2008)

Columns and labels:
Format in all cases: in vivo
[1] = system: rat model of bone cancer pain (MRMT-1 rat mammary gland carcinoma cells); assay: Weight-bearing difference in rat model of bone cancer pain (intra-tibial MRMT-1 cells); details: for weight-bearing difference between contralateral and ipsilateral paw: vs vehicle
Description: Adult female rats are given intra-tibial injections of MRMT-1 rat mammary gland carcinoma cells (3 μl, 10^7 cells/ml). These animals gradually develop mechanical hyperalgesia, mechanical allodynia (skin sensitivity to non-noxious stimuli) and hind limb sparing, beginning on day 12-14 following cell injection. COX-2 inhibitors, 5-methyl-2-(2′-chloro-6′-fluoroanilino)-phenylacetic acid (hereinafter referred to as COX189) (10 and 30 mg/kg p.o.) and valdecoxib (30 mg/kg p.o.) are administered as described below and the results obtained compared with vehicle treated controls.
Intra-tibial inoculation of MRMT-1 cells induces a time-dependent hypersensitivity in the ipsilateral limb, measured as a shift in body weight to the contralateral limb. The increase in weight-bearing difference between contralateral and ipsilateral paw (weight shift from the affected to the unaffected limb) is evident by day 14 post-inoculation and continues to increase until day 20.

[2] = system: rat model of bone cancer pain (MRMT-1 rat mammary gland carcinoma cells); assay: Mechanical allodynia (static and dynamic) in rat model of bone cancer pain; details: day 20; for static allodynia (punctuate stimulus), ipsilateral paw: 90 minutes after the last administration
Description: Adult female rats are given intra-tibial injections of MRMT-1 rat mammary gland carcinoma cells (3 μl, 10^7 cells/ml). These animals gradually develop mechanical hyperalgesia, mechanical allodynia (skin sensitivity to non-noxious stimuli) and hind limb sparing, beginning on day 12-14 following cell injection.

[3] = system: rat model of bone cancer pain (MRMT-1 rat mammary gland carcinoma cells); assay: Radiologically observed structural changes and bone mineral density in rat model of bone cancer pain; details: for radiologically observed structural changes / loss of bone mineral density compared to vehicle treated animals: day 20
Description: Adult female rats are given intra-tibial injections of MRMT-1 rat mammary gland carcinoma cells (3 μl, 10^7 cells/ml).

COX-1 = target: T1, COX-1 (Rattus norvegicus, UniProt Q63921); assay: Thromboxane B2 levels in samples from treated animals (COX-1 inhibition)
T1 construct: The levels of thromboxane B2 in the samples from COX189-treated animals; from tissue; host or cells: samples from treated rats
T1 sequence (Q63921 27-602): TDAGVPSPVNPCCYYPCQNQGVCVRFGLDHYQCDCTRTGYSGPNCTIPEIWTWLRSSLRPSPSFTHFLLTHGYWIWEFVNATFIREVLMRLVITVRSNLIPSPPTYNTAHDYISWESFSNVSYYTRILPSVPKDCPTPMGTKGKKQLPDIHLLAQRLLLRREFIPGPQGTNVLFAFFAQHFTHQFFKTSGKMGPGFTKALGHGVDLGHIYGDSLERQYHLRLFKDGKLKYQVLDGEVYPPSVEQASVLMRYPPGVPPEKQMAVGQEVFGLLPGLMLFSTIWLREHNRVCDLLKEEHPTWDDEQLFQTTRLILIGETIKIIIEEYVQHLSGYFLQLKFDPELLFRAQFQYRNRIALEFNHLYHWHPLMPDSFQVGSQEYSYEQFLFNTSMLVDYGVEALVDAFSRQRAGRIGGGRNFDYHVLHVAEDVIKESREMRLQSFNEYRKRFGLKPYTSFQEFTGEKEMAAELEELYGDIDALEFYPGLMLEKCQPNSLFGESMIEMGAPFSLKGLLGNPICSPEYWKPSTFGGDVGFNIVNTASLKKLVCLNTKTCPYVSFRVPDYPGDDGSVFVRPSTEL

Compound	weight-bearing difference between contralateral and ipsilateral paw ([1]; 10 mg/kg p.o. repeated from day 10 post-inoculation, days 14, 17 and 20, measured 1 hour after drug administration)	weight-bearing difference between contralateral and ipsilateral paw ([1]; 30 mg/kg p.o. repeated from day 10 post-inoculation, days 14, 17 and 20, measured 1 hour after drug administration)	dose dependence of the effect on weight-bearing difference ([1]; 10 versus 30 mg/kg p.o.)	dynamic allodynia (light stroking of the skin), ipsilateral paw ([2]; 10 mg/kg p.o. repeated)	static allodynia (punctuate stimulus), ipsilateral paw ([2]; 10 mg/kg p.o. repeated)	dynamic allodynia (light stroking of the skin), ipsilateral paw ([2]; 30 mg/kg p.o. repeated)	static allodynia (punctuate stimulus), ipsilateral paw ([2]; 30 mg/kg p.o. repeated)	radiologically observed structural changes ([3]; 10 mg/kg repeated)	loss of bone mineral density compared to vehicle treated animals ([3]; 30 mg/kg repeated)	radiologically observed structural changes ([3]; 30 mg/kg repeated)	radiologically observed structural changes in an animal model of bone cancer pain ([3]; general statement, no dose given)	thromboxane B2 level, % of the levels in the vehicle-control animals (COX-1; 10 mg/kg)	thromboxane B2 level, % of the levels in the vehicle-control animals (COX-1; 30 mg/kg)	weight-bearing difference between contralateral and ipsilateral paw ([1]; 30 mg/kg p.o. repeated, day 20)
Cc1ccc(Nc2c(F)cccc2Cl)c(CC(=O)O)c1 [COX189, 5-methyl-2-(2′-chloro-6′-fluoroanilino)-phenylacetic acid]	significantly attenuates	significantly attenuates	not dose-dependent	tendency to reduce	significantly reverses	reaches statistical significance	significantly reverses	significantly inhibits	significantly inhibit	significantly inhibits	inhibit the radiologically observed structural changes	87.4±17.7%	64.5±8.0%	–
Cc1onc(-c2ccccc2)c1-c1ccc(S(N)(=O)=O)cc1 [valdecoxib, reference compound]	–	–	–	–	–	tendency to reduce	significantly reverses	–	no significant effect	no significant effect	–	–	77.4±27.8%	significant
